From ChEMBL document CHEMBL1201862, “PubChem BioAssay data set” (2004) come the findings set out here.

Active and inactive are the calls of the source.

Assay [1] addresses T1, Calpain-2 catalytic subunit (Sus scrofa, UniProt P43367).
T1 sequence (P43367 whole entry): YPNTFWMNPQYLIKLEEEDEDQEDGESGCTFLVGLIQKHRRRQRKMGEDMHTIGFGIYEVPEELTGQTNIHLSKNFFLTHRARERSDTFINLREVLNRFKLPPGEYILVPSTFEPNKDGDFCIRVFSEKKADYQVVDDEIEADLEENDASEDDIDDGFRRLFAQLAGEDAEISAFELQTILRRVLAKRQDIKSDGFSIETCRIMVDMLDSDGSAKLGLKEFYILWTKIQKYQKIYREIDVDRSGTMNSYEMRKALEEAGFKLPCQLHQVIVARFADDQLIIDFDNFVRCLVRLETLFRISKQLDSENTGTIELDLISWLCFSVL
The assay is described as follows: pig calpain II inhibitor potency, dose response, biochemical, fluorogenic peptide substrate (AID 1420). The class given is functional.

Assay [2] has as its target X-box-binding protein 1 (Homo sapiens, UniProt P17861). The class given is functional, Cricetulus griseus.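 Further: confirmatory dose-response counter-screen serving a CHOP assay.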
For assay [3], the target named is T2, Replicative DNA helicase DnaB (Mycobacterium tuberculosis, UniProt P9WMR3).
T2 sequence (P9WMR3 whole entry): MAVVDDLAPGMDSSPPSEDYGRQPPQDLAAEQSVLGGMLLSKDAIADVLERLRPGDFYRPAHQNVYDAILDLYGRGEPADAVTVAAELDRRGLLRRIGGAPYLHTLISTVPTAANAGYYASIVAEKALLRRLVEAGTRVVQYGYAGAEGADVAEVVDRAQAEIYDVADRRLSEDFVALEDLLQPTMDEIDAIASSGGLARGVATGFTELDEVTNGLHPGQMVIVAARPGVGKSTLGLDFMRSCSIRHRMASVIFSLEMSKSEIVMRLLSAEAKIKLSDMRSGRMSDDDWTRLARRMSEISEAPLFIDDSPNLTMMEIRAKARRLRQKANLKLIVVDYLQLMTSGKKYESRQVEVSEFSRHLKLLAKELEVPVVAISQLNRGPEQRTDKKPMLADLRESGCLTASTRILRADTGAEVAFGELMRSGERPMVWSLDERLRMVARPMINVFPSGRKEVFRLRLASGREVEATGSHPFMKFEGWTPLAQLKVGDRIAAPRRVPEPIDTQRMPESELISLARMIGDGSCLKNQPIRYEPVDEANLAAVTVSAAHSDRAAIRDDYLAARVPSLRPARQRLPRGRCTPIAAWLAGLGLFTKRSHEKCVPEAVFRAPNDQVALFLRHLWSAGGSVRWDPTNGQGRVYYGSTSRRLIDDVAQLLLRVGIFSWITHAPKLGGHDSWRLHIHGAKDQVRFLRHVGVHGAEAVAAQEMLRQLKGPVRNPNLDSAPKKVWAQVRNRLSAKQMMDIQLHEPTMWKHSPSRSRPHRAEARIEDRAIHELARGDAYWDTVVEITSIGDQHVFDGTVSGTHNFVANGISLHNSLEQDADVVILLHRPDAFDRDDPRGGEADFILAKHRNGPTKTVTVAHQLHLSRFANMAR
The assay is described as follows: DnaB intein splicing inhibitors, dose response, biochemical, cell-free fluorescence (AID 449749). The format is functional.

Assay [4] addresses T3, Insulin-degrading enzyme (Homo sapiens, UniProt P14735).
T3 sequence (P14735 whole entry): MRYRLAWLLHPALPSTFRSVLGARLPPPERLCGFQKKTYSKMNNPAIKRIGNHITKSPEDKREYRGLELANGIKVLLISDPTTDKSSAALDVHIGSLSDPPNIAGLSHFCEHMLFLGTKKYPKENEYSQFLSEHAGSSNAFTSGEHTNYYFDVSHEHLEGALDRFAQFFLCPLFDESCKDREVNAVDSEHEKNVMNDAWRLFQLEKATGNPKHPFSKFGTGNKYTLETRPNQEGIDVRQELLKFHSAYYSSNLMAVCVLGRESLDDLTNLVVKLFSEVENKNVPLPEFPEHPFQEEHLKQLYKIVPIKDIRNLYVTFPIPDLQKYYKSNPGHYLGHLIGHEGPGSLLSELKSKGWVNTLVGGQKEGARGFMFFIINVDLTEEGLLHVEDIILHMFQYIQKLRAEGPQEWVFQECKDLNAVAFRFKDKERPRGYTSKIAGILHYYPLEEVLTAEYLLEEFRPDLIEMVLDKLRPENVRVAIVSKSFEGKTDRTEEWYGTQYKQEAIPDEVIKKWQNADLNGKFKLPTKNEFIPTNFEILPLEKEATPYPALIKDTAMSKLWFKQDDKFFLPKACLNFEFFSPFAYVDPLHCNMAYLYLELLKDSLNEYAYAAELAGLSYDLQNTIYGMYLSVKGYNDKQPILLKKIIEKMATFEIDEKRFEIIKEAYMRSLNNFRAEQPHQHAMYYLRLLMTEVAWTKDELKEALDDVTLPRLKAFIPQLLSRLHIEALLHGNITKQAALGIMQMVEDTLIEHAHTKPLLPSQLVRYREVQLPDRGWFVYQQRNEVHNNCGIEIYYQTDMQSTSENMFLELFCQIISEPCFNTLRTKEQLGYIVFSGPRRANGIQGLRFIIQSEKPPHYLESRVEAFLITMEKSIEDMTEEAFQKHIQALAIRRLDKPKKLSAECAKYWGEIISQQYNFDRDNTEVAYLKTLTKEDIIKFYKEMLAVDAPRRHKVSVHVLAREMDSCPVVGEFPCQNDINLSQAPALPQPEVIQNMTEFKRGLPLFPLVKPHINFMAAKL
The assay is described as follows: activators of recombinant IDE enzyme, dose response, counter-screen for IDE activator project, biochemical, fluorescence polarization (AID 588681). On the technique in general: A counterscreen serves to expose hits that act by an unwanted route or on another target.

Assay [5] has as its target T3, Insulin-degrading enzyme. The assay is described as follows: activators of endogenous IDE in HEK cells, dose response, cell-based, fluorescence polarization (AID 588439). The class given is functional. A general note: Polarisation of emitted light reports the rotation of a fluorescent probe.
Assay [6] has as its system HEK293. The assay is described as follows: HEK cell cytotoxicity by LDH release, dose response, cytotoxicity control for IDE activator project, fluorescence, HEK cells (AID 588440).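 Further: cytotoxicity by LDH release measuring loss of membrane integrity.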 The class given is functional, cell-based. The note with it: Homo sapiens. On the technique in general: LDH leaks from cells whose membrane has failed.
The test system of assay [7] is HEK293. The assay is described as follows: optical interference in Abeta FP readout, dose response, artefact control for IDE activator project, biochemical, fluorescence polarization (AID 588442). The format is functional, cell-based. The note with it: Homo sapiens.
The nature of assay [8]: Shn3 3'UTR reporter inhibitors, dose response, cell-based, Clone20 osteoblasts, firefly luciferase, cherry-picked (AID 624132).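 Further: firefly luciferase luminescence from reporter carrying the Shn3 3'UTR in osteoblasts.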 The class given is functional.
A short description of assay [9]: HepG2 cell cytotoxicity, dose response, cytotoxicity control for Shn3 inhibitor project, CellTiter-Glo, cherry-picked (AID 624134). The class given is functional, cell-based.
A short description of assay [10]: control 3'UTR Renilla luciferase suppression, dose response, counter-screen for Shn3 inhibitor project, cell-based, Clone20-Shn3RL, cherry-picked (AID 624133). The format is functional.
In assay [11] the target is Paired box protein Pax-8 (Homo sapiens, UniProt Q06710). The assay is described as follows: inhibitors of PAX8-driven TPO luciferase reporter, dose response, RMG-I cells, cherry-pick (AID 687027).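 Further: luciferase reporter driven by Pax8 target thyroperoxidase promoter measured by SteadyGlo luminescence.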 The class given is functional, cell-based.
Chain of Paired box protein Pax-8 (Q06710 whole entry): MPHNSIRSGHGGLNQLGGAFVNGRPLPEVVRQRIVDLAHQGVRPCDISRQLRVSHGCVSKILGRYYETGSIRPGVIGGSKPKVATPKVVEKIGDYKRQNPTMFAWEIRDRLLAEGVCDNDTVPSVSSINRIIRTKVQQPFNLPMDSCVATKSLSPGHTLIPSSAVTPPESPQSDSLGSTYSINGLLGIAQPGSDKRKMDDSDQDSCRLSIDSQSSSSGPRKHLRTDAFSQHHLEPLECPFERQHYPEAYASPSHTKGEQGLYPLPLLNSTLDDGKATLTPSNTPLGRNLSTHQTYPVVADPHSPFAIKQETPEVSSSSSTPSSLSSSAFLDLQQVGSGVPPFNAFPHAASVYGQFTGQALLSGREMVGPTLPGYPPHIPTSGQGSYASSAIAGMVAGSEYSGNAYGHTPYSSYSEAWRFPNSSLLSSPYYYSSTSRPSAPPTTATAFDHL
Assay [12] is described as follows: inhibitors of PGC1a acetylation in cells, dose response, cell-based, cherry-picked samples (AID 720514).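 Further: potency may reflect raised or lowered acetylation signal.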 The format is functional.
Assay [13] in a line: HepG2 cell cytotoxicity, dose response, cytotoxicity control, plate reader, cherry-pick, antagonist series (AID 743416). The format is functional, cell-based.
Assay [14] can be described thus: MC4R antagonists, dose response, counter-screen for LGR2 antagonist project, cell-based, plate reader, cherry pick (AID 743444).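 Further: transfected HEK 293 cells stimulated with alpha-MSH peptide; potency of inhibitors of the alpha-MSH evoked signal.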 The class given is functional.
Assay [15] in a line: HEK293 cell cytotoxicity, dose response, cytotoxicity control, plate reader, cherry-picked samples (AID 743446). The class given is functional, cell-based.

Chain of X-box-binding protein 1 (P17861 whole entry): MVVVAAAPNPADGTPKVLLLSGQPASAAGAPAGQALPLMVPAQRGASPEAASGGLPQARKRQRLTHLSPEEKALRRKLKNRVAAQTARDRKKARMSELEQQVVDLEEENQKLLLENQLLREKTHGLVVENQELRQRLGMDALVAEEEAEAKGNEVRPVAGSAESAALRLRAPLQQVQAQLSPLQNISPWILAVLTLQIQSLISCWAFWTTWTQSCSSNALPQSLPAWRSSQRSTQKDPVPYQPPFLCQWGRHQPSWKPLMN

One may read the IC50 as the concentration that gives 50% inhibition. The term AC50 denotes the concentration at which the activity in the assay is half-maximal. Broadly, the EC50 is the concentration needed to bring the measured effect to its halfway point. On to `Cl.N=c1n(Cc2ccccc2)c2ccccc2n1CC(O)COc1ccc(Cl)cc1Cl` (stereo not given), for which the values for the IC50 in assay [1] and in assay [6] were 33.4 µM (not active) and 8.27 µM (active), respectively. The “Absolute IC50 (XBP1)” value in assay [2] is 10 µM. Further, the AC50 in assay [3] was 2.51 µM (active); in assay [8], 2.89 µM (active); in assay [9], 14.3 µM (active); in assay [10] it was 5.16 µM (active); in [11] it was 17.2 µM (active); in assay [12], 6.94 µM (active). The figures for the AC50 in assay [13], in [14] and in [15] were 6.16 µM (active), 26.6 µM (active) and 12.7 µM (active), respectively. Moreover, the EC50 in assay [4] is 40.1 µM (inactive); in assay [5] it was 11.2 µM (inactive); in assay [7], > 54.7 µM (inactive).
